Assay results taken from PubChem BioAssay AID1963836 (Molecular Pharmacology Branch, DTP, NCI, 2024).
“And” between values parts separate entries of the source, which are not always exact repeats. Identical values can stand only once.

Test system: 857933-349-R-J2-PDC complex spheroid viability
Assay: Anticancer human tumor 857933-349-R-J2-PDC patient-derived colon adenocarcinoma cell line growth inhibition [POLQ]
Settings: for viability, T/C: stronger effect = lower value
Experimental: Multicellular complex tumor spheroid response to Polymerase (POL) inhibitors (novobiocin, ART-558, RP6685) in combination with a variety of drugs and investigational agents in selected tumor cell lines
The POL inhibitors (novobiocin, ART-558, and RP6685) were evaluated both individually and in combination with standard of care and investigational anticancer small molecules within a complex spheroid model of solid tumors. . Complex spheroids include a stromal component modeled by human endothelial cells (HUVEC) and fibroblasts modeled by human mesenchymal stem cells (MSCs). The concentration ranges selected for each drug and investigational agent were based upon clinically achievable concentrations if the clinical Cmax of the agent was known.
Compounds. The drugs and investigational agents: novobiocin (NSC847541), ART-558 (NSC835418), RP-6685 (NSC848927), peposertib (NSC802822), ceralasertib (NSC780249), elimusertib (NSC800525), camonsertib (NSC841442), AZD-1390 (NSC803789), olaparib (NSC753686), talazoparib (NSC767125), rucaparib (NSC756644), sotorasib (NSC818433), MRTX-1133 (NSC836407), SN-38 (NSC673596), topotecan (NSC609699), epotoside (NSC141540), doxorubicin (NSC123127), gemcitabine (NSC613327), 5-fluorouracil (NSC19893), paclitaxel (NSC125973), vemurafenib (NSC761431), MSA-2 (NSC828583), SN-011 (NSC837082), adavosertib (NSC754352), prexasertib (NSC758257), carboplatin (NSC241240) and oxaliplatin (NSC266046), were obtained from the National Cancer Institute (NCI) Developmental Therapeutics Program Chemical Repository (21). The FDA-approved anticancer drug set is available from the Developmental Therapeutics Program at https://dtp.cancer.gov/organization/dscb/obtaining/. […] The stock solutions were prepared in dimethyl sulfoxide (DMSO, Sigma-Aldrich, St. Louis, MO, cat. D2650), except for the platinum compounds which were prepared in saline (Quality Biological, Gaithersburg, MD, cat. 114-055-101), at 800-fold the tested concentration and stored at -70 degrees C prior to their use. All drugs and investigational agents were tested over a range starting from a high concentration at or near the clinical Cmax and decreasing in half-log increments. If the clinical Cmax for an agent had not been determined, the highest concentration tested was 10 microM, except for SN-38, which was tested at a high concentration of 1 microM.
Cell Culture. All cells were maintained in an incubator at 37 degrees C and 5% CO2 with 95% humidity. The PDC lines were cultured according to standard operating procedures established by the NCI PDMR (https://pdmr.cancer.gov). Table 3 of the manuscript, lists the cell lines along with the number of the three cell types plated to form the mct-spheroids and media for tumor cell growth. After thawing, all PDC lines, except 997537-175-T-J1-PDC and 415267-285-R-J2-PDC, were cultured in Matrigel-coated flasks prepared with a working solution of 1X Ham's F-12 nutrient mix, without supplementation (Thermo Fisher Scientific, cat. 11765054), 100 U/mL penicillin-streptomycin (Thermo Fisher Scientific, cat. 15140122), and 2.5% Matrigel (Corning Inc., Corning, NY, cat. 354248) for the first three passages. The two PDC lines 997537-175-T-J1-PDC and 415267-285-R-J2-PDC were cultured on uncoated flasks. The 857933-349-R-J2-PDC line was cultured in 6C/Colon 1B media containing advanced DMEM/F-12 (Thermo Fisher Scientific, cat. 12634028), 10 mM HEPES (Thermo Fisher Scientific, cat. 15630080), 1X GlutaMAX supplement (Thermo Fisher Scientific, cat. 35050061), 0.1 mg/mL primocin (InvivoGen, San Diego, CA, cat. ant-pm-2), 10% defined fetal bovine serum, heat inactivated (HyClone Laboratories Inc., Logan, UT, cat. SH30070.03HI), 50% L-WRN conditioned media (ATCC, cat. CRL-3276), 1.25 mM N-Acetyl-L-cysteine (Sigma-Aldrich, cat. A9165), 10 mM nicotinamide (Sigma-Aldrich, cat. N0636), 1X B-27 supplement (Thermo Fisher Scientific, cat. 17504044), 1X N-2 supplement (Thermo Fisher Scientific, cat. […]
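Note: spheroids exposed to compounds for seven days before readout.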

Nc1ccn(C2OC(CO)C(O)C2(F)F)c(=O)n1 (stereo not drawn) + Cc1cccc(N(C)C(=O)C2C(O)CCN2c2nc(C)cc(C(F)(F)F)c2C#N)c1 was tested, and the IC50 (curve of first compound, second compound 0.0316 µM) was 169 nM, the IC50 (curve of first compound, second compound 0.1 µM) was 175 nM and the IC50 (curve of first compound, second compound 0.316 µM) was 117 nM. The IC50 (curve of first compound, second compound 1 µM) was 141 nM, the IC50 (curve of first compound, second compound 3.16 µM) was 146 nM and the IC50 (curve of first compound, second compound 10 µM) was 126 nM. The viability, T/C (second compound 0.0316 µM, first compound 0.0316 µM) was 81.5%, the viability, T/C (second compound 0.0316 µM, first compound 0.1 µM) was 62.4% and the viability, T/C (second compound 0.0316 µM, first compound 0.316 µM) was 35.5%. For the same compound, the viability, T/C (second compound 0.0316 µM, first compound 1 µM) was 15.5%, the viability, T/C (second compound 0.0316 µM, first compound 3.16 µM) was 13.2% and the viability, T/C (second compound 0.0316 µM, first compound 10 µM) was 11.9%. For the same compound, the viability, T/C (second compound 0.1 µM, first compound 0.0316 µM) was 82.9%, the viability, T/C (second compound 0.1 µM, first compound 0.1 µM) was 68.2% and the viability, T/C (second compound 0.1 µM, first compound 0.316 µM) was 30.5%. For the same compound, the viability, T/C (second compound 0.1 µM, first compound 1 µM) was 15.2%, the viability, T/C (second compound 0.1 µM, first compound 3.16 µM) was 12.4% and the viability, T/C (second compound 0.1 µM, first compound 10 µM) was 7.96%. It also gave a viability, T/C (second compound 0.316 µM, first compound 0.0316 µM) of 73.8%, a viability, T/C (second compound 0.316 µM, first compound 0.1 µM) of 54% and a viability, T/C (second compound 0.316 µM, first compound 0.316 µM) of 26.5%. For the same compound, the viability, T/C (second compound 0.316 µM, first compound 1 µM) was 15.5%, the viability, T/C (second compound 0.316 µM, first compound 3.16 µM) was 13.2% and the viability, T/C (second compound 0.316 µM, first compound 10 µM) was 10.8%. For the same compound, the viability, T/C (second compound 1 µM, first compound 0.0316 µM) was 78.3%, the viability, T/C (second compound 1 µM, first compound 0.1 µM) was 61.4% and the viability, T/C (second compound 1 µM, first compound 0.316 µM) was 23.1%. It also gave a viability, T/C (second compound 1 µM, first compound 1 µM) of 18.2%, a viability, T/C (second compound 1 µM, first compound 3.16 µM) of 12.1% and a viability, T/C (second compound 1 µM, first compound 10 µM) of 10%. It also gave a viability, T/C (second compound 3.16 µM, first compound 0.0316 µM) of 65.2%, a viability, T/C (second compound 3.16 µM, first compound 0.1 µM) of 60% and a viability, T/C (second compound 3.16 µM, first compound 0.316 µM) of 30.7%. It also gave a viability, T/C (second compound 3.16 µM, first compound 1 µM) of 15.7%, a viability, T/C (second compound 3.16 µM, first compound 3.16 µM) of 10.1% and a viability, T/C (second compound 3.16 µM, first compound 10 µM) of 10.3%. For the same compound, the viability, T/C (second compound 10 µM, first compound 0.0316 µM) was 80.6%, the viability, T/C (second compound 10 µM, first compound 0.1 µM) was 53.7% and the viability, T/C (second compound 10 µM, first compound 0.316 µM) was 33.6%. The viability, T/C (second compound 10 µM, first compound 1 µM) was 17.4%, the viability, T/C (second compound 10 µM, first compound 3.16 µM) was 12.2% and the viability, T/C (second compound 10 µM, first compound 10 µM) was 11.4%.
For CC(C)n1c(=O)n(C)c2cnc3cc(F)c(-c4ccc(OCCCN5CCCCC5)nc4)cc3c21, the viability, T/C (compound 0.0316 µM) was 85.8% and 92.4% and 99%, the viability, T/C (compound 0.1 µM) was 84.1% and 96.4% and 101% and the viability, T/C (compound 0.316 µM) was 92.8% and 101% and 115%. For the same compound, the viability, T/C (compound 1 µM) was 91.6% and 100% and 106%, the viability, T/C (compound 3.16 µM) was 94.7% and 113% and 97.5% and the viability, T/C (compound 10 µM) was 63.6% and 98.3% and 110%. It also gave an IC50 (curve of compound) greater than 10000 nM.
For COc1cc(C2c3cc4c(cc3C(OC3OC5COC(C)OC5C(O)C3O)C3COC(=O)C23)OCO4)cc(OC)c1O (stereo not drawn), the viability, T/C (compound 0.0316 µM) was 74.7% and 90.5% and 74.8%, the viability, T/C (compound 0.1 µM) was 74% and 67.4% and 84.9% and the viability, T/C (compound 0.316 µM) was 51.1% and 65.9% and 54.1%. For the same compound, the viability, T/C (compound 1 µM) was 60% and 59.9% and 55.7%, the viability, T/C (compound 3.16 µM) was 38.2% and 33.4% and 32.9% and the viability, T/C (compound 10 µM) was 24.6% and 24.7% and 27.6%. The IC50 (curve of compound) was 1160 nM and 1190 nM and 955 nM.
CNCc1ccc(-c2[nH]c3cc(F)cc4c3c2CCNC4=O)cc1 was tested, and the viability, T/C (compound 0.0316 µM) was 100% and 90.4% and 94.9%, the viability, T/C (compound 0.1 µM) was 113% and 94.5% and 90.2% and the viability, T/C (compound 0.316 µM) was 112% and 94.5% and 80.8%. For the same compound, the viability, T/C (compound 1 µM) was 109% and 95.4% and 91.2%, the viability, T/C (compound 3.16 µM) was 108% and 106% and 89.7% and the viability, T/C (compound 10 µM) was 97.1% and 91.2% and 90%. For the same compound, the IC50 (curve of compound) was greater than 10000 nM.
